Measured values as given in patent US20220289732A1, “HETEROCYCLIC WDR5 INHIBITORS AS ANTI-CANCER COMPOUNDS” (NOVARTIS AG, priority 2019, published 2022).

Experiments:
[1] = system: MV4-11 cells; test: MV4-11 6-day cell growth CTG (CellTiter-Glo) assay; assay type: cell-based; settings: Homo sapiens, MV4-11, 144 h, 6 days, read-out: (c) MLL/WDR5 cell proliferation assay//MLL/WDR5 proliferation MV4:11 Qualified AC50
Method in brief: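 IC50 comes from a dose-response fit of % inhibition relative to DMSO controls, with viable cells measured by CellTiter-Glo luminescence. Compounds were tested over 12 points (1:3, starting at 50 μM final) on MV4-11 cells plated at 300/well and grown 6 days.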

[2] = biological target: WDR5 (Homo sapiens, UniProt P61964); test: WDR5 HTRF binding assay; settings: read-out: (a) WDR5 HTRF Pep Val v.1[Inhibitor/IC50]Qualified AC50
Method in brief: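 In this HTRF displacement format, biotinylated MLL1 WIN peptide (3762-3773, 20 nM) binds WDR5 (6 nM) in 25 mM Hepes pH 7.5 with 100 mM NaCl, 2 mM DTT and 0.1% BSA for 20 min at rt. Detection used streptavidin-APC/anti-His-Eu for 1 hr. IC50 came from dose-response fits of normalized signal; 15 nM biotin-PEG-His peptide served as counter assay.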

[3] = biological target: wild type MLL1 four-member complex (MLL1-4C) (Homo sapiens, UniProt P61964); test: MLL1 LC-MS assay (SAH production); assay type: biochemical; settings: read-out: (b) MLL LCMS Peptide Val.v.1 Qualified AC50
Method in brief: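 SAH formation, measured by LC-MS/MS after a TFA quench containing d4-SAH, was normalised to no-compound and no-enzyme controls and fitted to a dose-response curve for IC50. Reactions ran 120 min at rt (pH 8.0 Tris buffer) with final 30 nM MLL1 four-member complex, 2.5 μM SAM and 10 μM biotinylated H3[1-21] peptide, after a 20-min enzyme/SAM-compound preincubation.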

Compound | IC50 [2] [nM] | AC50 [3] [nM] | AC50 [1] [nM]
CCOc1cc([C@H](C)N2CCc3c(cc(CCN(C)CC)cc3-c3cc(N)ncc3Cl)C2=O)ncc1C#N [Example 183, (S)-6-(1-(5-(2-amino-5-chloropyridin-4-yl)-7-(2-(ethyl(methyl)amino)ethyl)-1-oxo-3,4-dihydroisoquinolin-2(1H)-yl)ethyl)-4-ethoxynicotinonitrile] | < 10 | 10 to 1000 | 10 to 1000
CCOc1cc([C@H](C)N2CCc3c(cc(CCN(C)CC)cc3-c3cc(C(C)(C)O)ncc3C)C2=O)ncc1C#N [Example 184, (S)-4-ethoxy-6-(1-(7-(2-(ethyl(methyl)amino)ethyl)-5-(2-(2-hydroxypropan-2-yl)-5-methylpyridin-4-yl)-1-oxo-3,4-dihydroisoquinolin-2(1H)-yl)ethyl)nicotinonitrile] | < 10 | 10 to 1000 | 10 to 1000
CCOc1cc([C@H](C)N2CCc3c(cc(CCN(C)CC)cc3-c3cc(C(C)=O)cnc3C)C2=O)ncc1C#N [Example 185, (S)-6-(1-(5-(5-acetyl-2-methylpyridin-3-yl)-7-(2-(ethyl(methyl)amino)ethyl)-1-oxo-3,4-dihydroisoquinolin-2(1H)-yl)ethyl)-4-ethoxynicotinonitrile] | < 10 | 10 to 1000 | 10 to 1000
CCOc1cc([C@H](C)N2CCc3c(cc(CCN(C)CC)cc3-c3cc(C(C)O)cnc3C)C2=O)ncc1C#N (stereo partly drawn) [Example 186, 4-ethoxy-6-((1S)-1-(7-(2-(ethyl(methyl)amino)ethyl)-5-(5-(1-hydroxyethyl)-2-methylpyridin-3-yl)-1-oxo-3,4-dihydroisoquinolin-2(1H)-yl)ethyl)nicotinonitrile] | < 10 | 10 to 1000 | 10 to 1000
CCOc1cc([C@H](C)N2CCc3c(cc(CCN(C)CC)cc3-c3cc(N)cnc3C)C2=O)ncc1C#N [Example 187, (S)-6-(1-(5-(5-amino-2-methylpyridin-3-yl)-7-(2-(ethyl(methyl)amino)ethyl)-1-oxo-3,4-dihydroisoquinolin-2(1H)-yl)ethyl)-4-ethoxynicotinonitrile] | < 10 | 10 to 1000 | 10 to 1000
CCOc1cc([C@H](C)N2CCc3c(cc(CCN(C)CC)cc3-c3cc(OC)ncc3C)C2=O)ncc1C#N [Example 188, (S)-4-ethoxy-6-(1-(7-(2-(ethyl(methyl)amino)ethyl)-5-(2-methoxy-5-methylpyridin-4-yl)-1-oxo-3,4-dihydroisoquinolin-2(1H)-yl)ethyl)nicotinonitrile] | < 10 | 10 to 1000 | 10 to 1000
CCOc1cc(CN2CCc3c(cc(CCN(C)CC)cc3-c3cc(C)nnc3C)C2=O)ncc1C#N [Example 189, 6-((5-(3,6-dimethylpyridazin-4-yl)-7-(2-(ethyl(methyl)amino)ethyl)-1-oxo-3,4-dihydroisoquinolin-2(1H)-yl)methyl)-4-ethoxynicotinonitrile] | < 10 | 10 to 1000 | 10 to 1000
CCOc1cc([C@H](C)N2CCc3c(cc(CCN(C)CC)cc3-c3cn4ccnc4cc3C)C2=O)ncc1C#N [Example 190, (S)-4-ethoxy-6-(1-(7-(2-(ethyl(methyl)amino)ethyl)-5-(7-methylimidazo[1,2-a]pyridin-6-yl)-1-oxo-3,4-dihydroisoquinolin-2(1H)-yl)ethyl)nicotinonitrile] | < 10 | 10 to 1000 | 10 to 1000
CCOc1cc([C@H](C)N2CCc3c(cc(CCN(C)CC)cc3-c3c(OC)ccnc3C)C2=O)ncc1C#N [Example 191, 4-ethoxy-6-((1S)-1-(7-(2-(ethyl(methyl)amino)ethyl)-5-(4-methoxy-2-methylpyridin-3-yl)-1-oxo-3,4-dihydroisoquinolin-2(1H)-yl)ethyl)nicotinonitrile] | < 10 | 10 to 1000 | 10 to 1000
CCOc1cc([C@H](C)N2CCc3c(cc(CCN(C)CC)cc3-c3cc(CC#N)cnc3C)C2=O)ncc1C#N [Example 192, (S)-6-(1-(5-(5-(cyanomethyl)-2-methylpyridin-3-yl)-7-(2-(ethyl(methyl)amino)ethyl)-1-oxo-3,4-dihydroisoquinolin-2(1H)-yl)ethyl)-4-ethoxynicotinonitrile] | < 10 | 10 to 1000 | 10 to 1000
CCOc1cc([C@H](C)N2CCc3c(cc(CCN(C)CC)cc3-c3cn(C)c(=O)cc3CC)C2=O)ncc1C#N [Example 193, (S)-4-ethoxy-6-(1-(7-(2-(ethyl(methyl)amino)ethyl)-5-(4-ethyl-1-methyl-6-oxo-1,6-dihydropyridin-3-yl)-1-oxo-3,4-dihydroisoquinolin-2(1H)-yl)ethyl)nicotinonitrile] | < 10 | 10 to 1000 | 10 to 1000
CCOc1cc([C@H](C)N2CCc3c(cc(CCN(C)CC)cc3-c3ccn(C)c(=O)c3Cl)C2=O)ncc1C#N [Example 194, (S)-6-(1-(5-(3-chloro-1-methyl-2-oxo-1,2-dihydropyridin-4-yl)-7-(2-(ethyl(methyl)amino)ethyl)-1-oxo-3,4-dihydroisoquinolin-2(1H)-yl)ethyl)-4-ethoxynicotinonitrile] | < 10 | 10 to 1000 | 10 to 1000
CCOc1cc([C@H](C)N2CCc3c(cc(CCN(C)CC)cc3-c3ccn(C)c(=O)c3C(F)(F)F)C2=O)ncc1C#N [Example 195, (S)-4-ethoxy-6-(1-(7-(2-(ethyl(methyl)amino)ethyl)-5-(1-methyl-2-oxo-3-(trifluoromethyl)-1,2-dihydropyridin-4-yl)-1-oxo-3,4-dihydroisoquinolin-2(1H)-yl)ethyl)nicotinonitrile] | 10 to 1000 | 10 to 1000 | 10 to 1000

The next lines start with results.

IC50 [2] [nM] | AC50 [3] [nM] | Compound | AC50 [1] [nM]
< 10 | 10 to 1000 | CCOc1cc([C@H](C)N2CCc3c(cc(CCN(C)CC)cc3-c3cn(C)c(=O)cc3Cl)C2=O)ncc1C#N [Example 175, (S)-6-(1-(5-(4-chloro-1-methyl-6-oxo-1,6-dihydropyridin-3-yl)-7-(2-(ethyl(methyl)amino)ethyl)-1-oxo-3,4-dihydroisoquinolin-2(1H)-yl)ethyl)-4-ethoxynicotinonitrile] | 10 to 1000
< 10 | 10 to 1000 | CCOc1cc([C@H](C)N2CCc3c(cc(CCN(C)CC)cc3-c3c[nH]c(=O)cc3C(F)(F)F)C2=O)ncc1C#N [Example 176, (S)-4-ethoxy-6-(1-(7-(2-(ethyl(methyl)amino)ethyl)-1-oxo-5-(6-oxo-4-(trifluoromethyl)-1,6-dihydropyridin-3-yl)-3,4-dihydroisoquinolin-2(1H)-yl)ethyl)nicotinonitrile] | < 10
< 10 | 10 to 1000 | CCOc1cc([C@H](C)N2CCc3c(cc(CCN(C)CC)cc3-c3cc(C(F)F)cnc3C)C2=O)ncc1C#N [Example 177, (S)-6-(1-(5-(5-(difluoromethyl)-2-methylpyridin-3-yl)-7-(2-(ethyl(methyl)amino)ethyl)-1-oxo-3,4-dihydroisoquinolin-2(1H)-yl)ethyl)-4-ethoxynicotinonitrile] | 10 to 1000
< 10 | 10 to 1000 | CCOc1cc([C@H](C)N2CCc3c(cc(CCN(C)CC)cc3-c3ccc(N)nc3Cl)C2=O)ncc1C#N [Example 178, (S)-6-(1-(5-(6-amino-2-chloropyridin-3-yl)-7-(2-(ethyl(methyl)amino)ethyl)-1-oxo-3,4-dihydroisoquinolin-2(1H)-yl)ethyl)-4-ethoxynicotinonitrile] | 10 to 1000
< 10 | 10 to 1000 | CCOc1cc(CN2CCc3c(cc(CCN(C)CC)cc3-c3cc(C)ncc3C)C2=O)ncc1C#N [Example 179, 6-((5-(2,5-dimethylpyridin-4-yl)-7-(2-(ethyl(methyl)amino)ethyl)-1-oxo-3,4-dihydroisoquinolin-2(1H)-yl)rnethyl)-4-ethoxynicotinonitrile] | 10 to 1000
< 10 | 10 to 1000 | CCOc1cc(CN2CCc3c(cc(CCN(C)CC)cc3-c3cc(N)ncc3C)C2=O)ncc1C#N [Example 180, 6-((5-(2-amino-5-methylpyridin-4-yl)-7-(2-(ethyl(methyl)amino)ethyl)-1-oxo-3,4-dihydroisoquinolin-2(1H)-yl)rnethyl)-4-ethoxynicotinonitrile] | 10 to 1000
< 10 | 10 to 1000 | CCOc1cc([C@H](C)N2CCc3c(cc(CCN(C)CC)cc3-c3cc4ocnc4nc3C)C2=O)ncc1C#N [Example 181, (S)-4-ethoxy-6-(1-(7-(2-(ethyl(methyl)amino)ethyl)-5-(5-methyloxazolo[4,5-b]pyridin-6-yl)-1-oxo-3,4-dihydroisoquinolin-2(1H)-yl)ethyl)nicotinonitrile] | 10 to 1000
< 10 | 10 to 1000 | CCOc1cc([C@H](C)N2CCc3c(cc(CCN(C)CC)cc3-c3cn(C)c(=O)cc3C(F)(F)F)C2=O)ncc1C#N [Example 182, (S)-4-ethoxy-6-(1-(7-(2-(ethyl(methyl)amino)ethyl)-5-(1-methyl-6-oxo-4-(trifluoromethyl)-1,6-dihydropyridin-3-yl)-1-oxo-3,4-dihydroisoquinolin-2(1H)-yl)ethyl)nicotinonitrile] | 10 to 1000
